This passage reports IC50 results from patent publication US20240390350A1, “PHENYL CORE COMPOUNDS AS MGLU5 NEGATIVE ALLOSTERIC MODULATORS AND METHODS OF MAKING AND USING THE SAME” (Vanderbilt University, priority 2021, published 2024).

Each structure is given as a SMILES string.

The target of the experiment is T1, human mGlu5 (Homo sapiens, UniProt P41594).
T1 construct: expressed in transfected cells; host or cells: HEK 293A
T1 sequence (P41594 21-1212): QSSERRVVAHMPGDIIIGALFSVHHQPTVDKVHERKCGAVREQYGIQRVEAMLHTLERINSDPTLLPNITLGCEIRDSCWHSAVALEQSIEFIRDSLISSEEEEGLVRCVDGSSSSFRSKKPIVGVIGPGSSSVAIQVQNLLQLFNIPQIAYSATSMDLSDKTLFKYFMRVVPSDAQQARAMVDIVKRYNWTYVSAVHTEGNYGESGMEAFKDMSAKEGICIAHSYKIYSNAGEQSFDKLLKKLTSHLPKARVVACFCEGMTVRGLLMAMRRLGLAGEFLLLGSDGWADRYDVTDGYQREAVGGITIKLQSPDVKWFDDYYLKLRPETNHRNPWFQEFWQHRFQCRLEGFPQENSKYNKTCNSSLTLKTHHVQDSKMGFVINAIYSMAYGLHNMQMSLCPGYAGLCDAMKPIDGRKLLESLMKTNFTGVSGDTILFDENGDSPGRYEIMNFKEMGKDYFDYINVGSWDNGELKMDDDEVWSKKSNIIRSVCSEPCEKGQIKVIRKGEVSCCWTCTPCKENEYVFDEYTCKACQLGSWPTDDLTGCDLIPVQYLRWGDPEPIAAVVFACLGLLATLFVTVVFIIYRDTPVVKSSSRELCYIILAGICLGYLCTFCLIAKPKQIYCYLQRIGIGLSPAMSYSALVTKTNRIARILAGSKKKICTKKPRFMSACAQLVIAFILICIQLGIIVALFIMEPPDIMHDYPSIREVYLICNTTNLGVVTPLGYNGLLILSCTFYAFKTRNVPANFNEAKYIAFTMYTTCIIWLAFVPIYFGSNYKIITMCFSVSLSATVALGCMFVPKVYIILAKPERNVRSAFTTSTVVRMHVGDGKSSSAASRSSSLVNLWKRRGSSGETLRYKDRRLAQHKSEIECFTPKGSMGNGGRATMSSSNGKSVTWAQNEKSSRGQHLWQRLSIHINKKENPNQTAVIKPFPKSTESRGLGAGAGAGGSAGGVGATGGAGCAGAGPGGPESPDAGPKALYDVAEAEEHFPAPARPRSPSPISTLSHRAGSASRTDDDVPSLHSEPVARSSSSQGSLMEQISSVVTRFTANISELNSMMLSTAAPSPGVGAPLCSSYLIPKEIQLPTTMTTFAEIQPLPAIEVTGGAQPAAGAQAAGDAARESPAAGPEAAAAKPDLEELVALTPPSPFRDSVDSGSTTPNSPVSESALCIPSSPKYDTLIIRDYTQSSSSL
In words: mGlu5 negative allosteric modulator Ca2+ flux assay in HEK 293A cells (Table 1). The conditions noted are these: HEK 293A cells stably expressing mGlu5; Ca2+ flux (Fluo-4); decrease of glutamate EC80 response; read-out: hmGlu5 NAM IC50. It is filed as cell-based.
A word on the IC50: it is the concentration needed to halve the response being measured. In the case of `Cc1csc(NC(=O)c2cc(-c3cnccc3C)ccc2F)n1` [Compound 1, 2-fluoro-5-(4-methylpyridin-3-yl)-N-(4-methylthiazol-2-yl)benzamide], the IC50 was 734 nM. With `Cc1csc(NC(=O)c2cc(-c3cnccc3C)cc(F)c2F)n1` [Compound 2, 2,3-difluoro-5-(4-methylpyridin-3-yl)-N-(4-methylthiazol-2-yl)benzamide] the figure was 136 nM. Next, `Cc1csc(NC(=O)c2cc(F)cc(-c3cnccc3C)c2)n1` [Compound 3, 3-fluoro-5-(4-methylpyridin-3-yl)-N-(4-methylthiazol-2-yl)benzamide]: 540 nM; `Cc1cc(C(=O)Nc2cccc(C)n2)cc(-c2cnccc2C)c1` [Compound 4, 3-methyl-N-(6-methylpyridin-2-yl)-5-(4-methylpyridin-3-yl)benzamide]: 43 nM. With `Cc1cc(C(=O)Nc2ccccn2)cc(-c2cnccc2C)c1` [Compound 5, 3-Methyl-5-(4-methylpyridin-3-yl)-N-(pyridin-2-yl)benzamide] the figure was 95 nM; with `Cc1cc(C(=O)Nc2ccc(F)cn2)cc(-c2cnccc2C)c1` [Compound 6, N-(5-fluoropyridin-2-yl)-3-methyl-5-(4-methylpyridin-3-yl)benzamide], 370 nM.

For `Cc1cc(C(=O)Nc2nc(C)cs2)cc(-c2cnccc2C)c1` [Compound 7, 3-Methyl-5-(4-methylpyridin-3-yl)-N-(4-methylthiazol-2-yl)benzamidecarboxamide], the IC50 turned out to be 127 nM. With `Cc1ccncc1-c1cc(F)c(F)c(C(=O)Nc2ccccn2)c1` [Compound 8, 2,3-difluoro-5-(4-methylpyridin-3-yl)-N-(pyridin-2-yl)benzamide] the figure was more than 10000 nM.

As for `Cc1ccncc1-c1cc(F)c(F)c(C(=O)Nc2ccc(F)cn2)c1` [Compound 9, 2,3-difluoro-N-(5-fluoropyridin-2-yl)-5-(4-methylpyridin-3-yl)benzamide], the IC50 was found to be 1030 nM.

As to `Cc1cccc(NC(=O)c2cc(-c3cnccc3C)cc(F)c2F)n1` [Compound 10, 2,3-difluoro-N-(6-methylpyridin-2-yl)-5-(4-methylpyridin-3-yl)benzamide], the IC50 is 322 nM.

`Cc1ccncc1-c1ccc(F)c(C(=O)Nc2ccccn2)c1` [Compound 11, 2-fluoro-5-(4-methylpyridin-3-yl)-N-(pyridin-2-yl)benzamide]: the IC50 was 1880 nM. For `Cc1ccncc1-c1ccc(F)c(C(=O)Nc2ccc(F)cn2)c1` [Compound 12, 2-fluoro-N-(5-fluoropyridin-2-yl)-5-(4-methylpyridin-3-yl)benzamide], the concentration for half-maximal inhibition (IC50) was 1060 nM. For the compound `Cc1cccc(NC(=O)c2cc(-c3cnccc3C)ccc2F)n1` [Compound 13, 2-fluoro-N-(6-methylpyridin-2-yl)-5-(4-methylpyridin-3-yl)benzamide], the IC50 came out at 366 nM. With `Cc1csc(NC(=O)c2cc(Cl)cc(-c3cnccc3C)c2)n1` [Compound 14, 3-chloro-5-(4-methylpyridin-3-yl)-N-(4-methylthiazol-2-yl)benzamide] the figure was 631 nM; with `Cc1ccncc1-c1cc(Cl)cc(C(=O)Nc2ccccn2)c1` [Compound 15, 3-chloro-5-(4-methylpyridin-3-yl)-N-(pyridin-2-yl)benzamide], 328 nM; with `Cc1cccc(NC(=O)c2cc(Cl)cc(-c3cnccc3C)c2)n1` [Compound 16, 3-chloro-N-(6-methylpyridin-2-yl)-5-(4-methylpyridin-3-yl)benzamide], 104 nM. With `Cc1ccncc1-c1cc(Cl)cc(C(=O)Nc2ccc(F)cn2)c1` [Compound 17, 3-chloro-N-(5-fluoropyridin-2-yl)-5-(4-methylpyridin-3-yl)benzamide] the figure was 1860 nM; with `Cc1csc(NC(=O)c2cc(-c3cnccc3C)cc(C(F)(F)F)c2)n1` [Compound 18, 3-(4-methylpyridin-3-yl)-N-(4-methylthiazol-2-yl)-5-(trifluoromethyl)benzamide], more than 10000 nM.

For `Cc1ccncc1-c1cc(C(=O)Nc2ccccn2)cc(C(F)(F)F)c1` [Compound 19, 3-(4-methylpyridin-3-yl)-N-(pyridin-2-yl)-5-(trifluoromethyl)benzamide], the IC50 was found to be 2590 nM.

In the case of `Cc1cccc(NC(=O)c2cc(-c3cnccc3C)cc(C(F)(F)F)c2)n1` [Compound 20, N-(6-methylpyridin-2-yl)-3-(4-methylpyridin-3-yl)-5-(trifluoromethyl)benzamide], the IC50 was 1160 nM. Turning to `Cc1ccncc1-c1cc(C(=O)Nc2ccc(F)cn2)cc(C(F)(F)F)c1` [Compound 21, N-(5-fluoropyridin-2-yl)-3-(4-methylpyridin-3-yl)-5-(trifluoromethyl)benzamide], the IC50 is 3370 nM.

Turning to `Cc1csc(NC(=O)c2cc(C#N)cc(-c3cnccc3C)c2)n1` [Compound 22, 3-cyano-5-(4-methylpyridin-3-yl)-N-(4-methylthiazol-2-yl)benzamide], the IC50 was 198 nM.

As for `Cc1ccncc1-c1cc(C#N)cc(C(=O)Nc2ccccn2)c1` [Compound 23, 3-cyano-5-(4-methylpyridin-3-yl)-N-(pyridin-2-yl)benzamide], the IC50 is 1210 nM.

For `Cc1cccc(NC(=O)c2cc(C#N)cc(-c3cnccc3C)c2)n1` [Compound 24, 3-cyano-N-(6-methylpyridin-2-yl)-5-(4-methylpyridin-3-yl)benzamide], the IC50 worked out at 273 nM. Regarding `Cc1ccncc1-c1cc(C#N)cc(C(=O)Nc2ccc(F)cn2)c1` [Compound 25, 3-cyano-N-(5-fluoropyridin-2-yl)-5-(4-methylpyridin-3-yl)benzamide], the IC50 came out at 989 nM.

Turning to `Cc1nn(C)cc1-c1ccc(F)c(C(=O)Nc2ccc(F)cn2)c1` [Compound 26, 5-(1,3-dimethyl-1H-pyrazol-4-yl)-2-fluoro-N-(5-fluoropyridin-2-yl)benzamide], the IC50 is more than 10000 nM. With `Cn1cncc1-c1cc(F)cc(C(=O)Nc2ccc(F)cn2)c1` [Compound 27, 3-fluoro-N-(5-fluoropyridin-2-yl)-5-(1-methyl-1H-imidazol-5-yl)benzamide] the figure was more than 10000 nM; with `Cc1nn(C)c(C)c1-c1cc(F)cc(C(=O)Nc2ccc(F)cn2)c1` [Compound 28, 3-fluoro-N-(5-fluoropyridin-2-yl)-5-(1,3,5-trimethyl-1H-pyrazol-4-yl)benzamide], more than 10000 nM; with `Cc1ccncc1-c1cc(C(=O)Nc2ccc(F)cn2)cc(F)c1F` [Compound 29, 3,4-difluoro-N-(5-fluoropyridin-2-yl)-5-(4-methylpyridin-3-yl)benzamide], 2240 nM. With `Cc1cccc(NC(=O)c2cc(F)c(F)c(-c3cnccc3C)c2)n1` [Compound 30, 3,4-difluoro-N-(6-methylpyridin-2-yl)-5-(4-methylpyridin-3-yl)benzamide] the figure was 101 nM; with `Cc1ccncc1-c1cc(C(=O)Nc2ccc(Cl)cn2)cc(F)c1F` [Compound 31, N-(5-chloropyridin-2-yl)-3,4-difluoro-5-(4-methylpyridin-3-yl)benzamide], 677 nM. With `Cn1nccc1-c1cc(F)c(F)c(C(=O)Nc2ccc(F)cn2)c1` [Compound 32, 2,3-difluoro-N-(5-fluoropyridin-2-yl)-5-(1-methyl-1H-pyrazol-5-yl)benzamide] the figure was 4890 nM; with `Cc1nn(C)cc1-c1cc(F)c(F)c(C(=O)Nc2ccc(F)cn2)c1` [Compound 33, 5-(1,3-dimethyl-1H-pyrazol-4-yl)-2,3-difluoro-N-(5-fluoropyridin-2-yl)benzamide], 3460 nM; with `O=C(Nc1ccc(F)cn1)c1cc(-c2cncc(F)c2)cc(F)c1F` [Compound 34, 2,3-difluoro-N-(5-fluoropyridin-2-yl)-5-(5-fluoropyridin-3-yl)benzamide], 161 nM. In the case of `Cc1ncc(-c2cc(F)c(F)c(C(=O)Nc3ccc(F)cn3)c2)s1` [Compound 35, 2,3-difluoro-N-(5-fluoropyridin-2-yl)-5-(2-methylthiazol-5-yl)benzamide], the IC50 came to 4170 nM. For the compound `Cn1nc(C(F)(F)F)cc1-c1cc(F)c(F)c(C(=O)Nc2ccc(F)cn2)c1` [Compound 36, 2,3-difluoro-N-(5-fluoropyridin-2-yl)-5-(1-methyl-3-(trifluoromethyl)-1H-pyrazol-5-yl)benzamide], the IC50 is more than 10000 nM. With `Cc1csc(NC(=O)c2cc(-c3cnccc3C)c(F)cc2F)n1` [Compound 37, 2,4-difluoro-5-(4-methylpyridin-3-yl)-N-(4-methylthiazol-2-yl)benzamide] the figure was 437 nM; with `Cc1ccncc1-c1cc(C(=O)Nc2ccc(F)cn2)c(F)cc1F` [Compound 38, 2,4-difluoro-N-(5-fluoropyridin-2-yl)-5-(4-methylpyridin-3-yl)benzamide], 6420 nM. Next, `Cc1ccncc1-c1cc(C(=O)Nc2ccc(Cl)cn2)c(F)cc1F` [Compound 39, N-(5-chloropyridin-2-yl)-2,4-difluoro-5-(4-methylpyridin-3-yl)benzamide]: 974 nM; `Cc1csc(NC(=O)c2cc(-c3cncc(F)c3)cc(F)c2F)n1` [Compound 40, 2,3-difluoro-5-(5-fluoropyridin-3-yl)-N-(4-methylthiazol-2-yl)benzamide]: 93 nM; `O=C(Nc1cccc(Cl)n1)c1cc(-c2cncc(F)c2)cc(F)c1F` [Compound 42, N-(6-chloropyridin-2-yl)-2,3-difluoro-5-(5-fluoropyridin-3-yl)benzamide]: 193 nM. As to `Cc1cccc(NC(=O)c2cc(F)c(F)c(-c3ccnn3C)c2)n1` [Compound 43, 3,4-difluoro-5-(1-methyl-1H-pyrazol-5-yl)-N-(6-methylpyridin-2-yl)benzamide], the IC50 turned out to be 4440 nM. Consider `Cc1cccc(NC(=O)c2cc(F)c(F)c(-c3cc(C(F)(F)F)nn3C)c2)n1` [Compound 44, 3,4-difluoro-5-(1-methyl-3-(trifluoromethyl)-1H-pyrazol-5-yl)-N-(6-methylpyridin-2-yl)benzamide], for which the IC50 is 3510 nM.
